The source made the active and inactive calls. The rule behind the calls is not given here.
Columns and labels:
[1] = target: G-protein coupled receptor 52 (Mus musculus) (UniProt P0C5J4); experiment: In vivo antagonist activity at GPR52 in HdhQ140 knock-in mouse model assessed as reduction in mHTT aggregate levels in striatum in presence of 4C9 antibody labelled with D2 fluorophore at 5 mg/kg, iv QD for 4 weeks by TR-FRET analysis; type: functional, organism-based
[2] = target: T1, Alpha-1D adrenergic receptor (Homo sapiens) (UniProt P25100); experiment: Antagonist activity at alpha1D adrenergic receptor (unknown origin) expressed in HEK293 cells assessed as inhibition of phenylephrine-induced cAMP accumulation; type: functional, cell-based
T1 sequence (whole entry): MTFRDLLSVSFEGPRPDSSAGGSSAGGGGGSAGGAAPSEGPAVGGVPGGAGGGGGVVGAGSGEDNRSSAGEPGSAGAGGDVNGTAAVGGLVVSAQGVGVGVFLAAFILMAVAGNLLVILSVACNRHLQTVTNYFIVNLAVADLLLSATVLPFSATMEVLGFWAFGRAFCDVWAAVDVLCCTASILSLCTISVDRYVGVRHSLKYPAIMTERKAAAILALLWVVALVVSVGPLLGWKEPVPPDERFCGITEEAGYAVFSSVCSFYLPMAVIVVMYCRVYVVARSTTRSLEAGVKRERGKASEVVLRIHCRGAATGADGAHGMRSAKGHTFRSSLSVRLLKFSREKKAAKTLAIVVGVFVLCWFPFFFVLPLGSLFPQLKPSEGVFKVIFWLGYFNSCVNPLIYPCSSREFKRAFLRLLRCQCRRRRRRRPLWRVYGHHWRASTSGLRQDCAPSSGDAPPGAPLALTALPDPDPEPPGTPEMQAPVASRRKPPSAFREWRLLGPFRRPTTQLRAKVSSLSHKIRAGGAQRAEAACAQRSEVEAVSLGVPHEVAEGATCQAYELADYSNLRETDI

[3] = target: G-protein coupled receptor 52 (Mus musculus) (UniProt P0C5J4); experiment: In vivo antagonist activity at GPR52 in wild type mouse model assessed as reduction in mHTT aggregate levels in cortex in presence of 4C9 antibody labelled with D2 fluorophore at 5 mg/kg, iv QD for 4 weeks by TR-FRET analysis; type: functional, organism-based
[4] = target: G-protein coupled receptor 52 (Mus musculus) (UniProt P0C5J4); experiment: In vivo antagonist activity at GPR52 in HdhQ140 knock-in mouse model assessed as reduction in mHTT levels in striatum at 0.5 mM, icv QD for 3 weeks by TR-FRET analysis; type: functional
STHdhQ7/111 [5] = experiment: Decrease in mHTT level in GPR52 knockdown mouse STHdhQ7/111 cells with at 1 to 10 uM incubated for 48 hrs in presence of 2B7-terbium and 2166-D2 antibodies by TR-FRET analysis; type: functional, cell-based; conditions: dose 1-10 µM
[6] = target: G-protein coupled receptor 52 (Mus musculus) (UniProt P0C5J4); experiment: In vivo antagonist activity at GPR52 in wild type mouse model assessed as reduction in mHTT aggregate levels in striatum in presence of 4C9 antibody labelled with terbium at 5 mg/kg, iv QD for 4 weeks by TR-FRET analysis; type: functional, organism-based
[7] = target: G-protein coupled receptor 52 (Mus musculus) (UniProt P0C5J4); experiment: Antagonist activity at GPR52 in neurons from HdhQ7/Q140 mouse assessed as decrease in mHTT levels at 0.3 to 3 uM incubated for 48 hrs in presence of 2B7-terbium and 2166-D2 antibodies by western blot analysis; conditions: Neuron, filed as antagonist, dose 0.3-3 µM
[8] = Neurotoxicity in wild type mouse assessed as motor deficiency by measuring latency to fall at 5 mg/kg, iv QD for 4 weeks by rotarod test; type: toxicity, organism-based; conditions: in vivo, 672 h
Neuron [9] = experiment: Neuroprotective activity in neurons from HdhQ7/Q140 mouse assessed as rescue from mHTT-induced neuronal loss at 3 uM incubated for 48 hrs maintained in absence of growth factor N2 and B27 under starvation condition by immunostaining based analysis; type: functional, tissue-based
Mus musculus [10] = experiment: Neuroprotective activity in HdhQ140 mouse model assessed as latency to fall at 5 mg/kg, iv QD for 4 weeks by rotarod test; type: functional, organism-based
[11] = target: G-protein coupled receptor 52 (Mus musculus) (UniProt P0C5J4); experiment: Antagonist activity at GPR52 in mouse STHdhQ7/111 cells assessed as decrease in mHTT levels incubated for 48 hrs in presence of 2B7-terbium and 2166-D2 antibodies by TR-FRET; type: cell-based; conditions: filed as antagonist, dose 0.3-10 µM
[12] = target: G-protein coupled receptor 52 (Mus musculus) (UniProt P0C5J4); experiment: In vivo antagonist activity at GPR52 in HdhQ140 knock-in mouse model assessed as reduction in mHTT levels in cortex at 0.5 mM, icv QD for 3 weeks by TR-FRET analysis; type: functional
[13] = target: G-protein coupled receptor 52 (Mus musculus) (UniProt P0C5J4); experiment: In vivo antagonist activity at GPR52 in wild type mouse model assessed as reduction in soluble mHTT levels at 5 mg/kg, iv QD for 4 weeks by TR-FRET analysis; type: functional, organism-based
[14] = target: C-C chemokine receptor type 5 (Homo sapiens) (UniProt P51681); experiment: Antagonist activity at CCR5 (unknown origin) expressed in HEK293 cells assessed as inhibition of […] cAMP accumulation; type: functional, cell-based
[15] = target: G-protein coupled receptor 52 (Mus musculus) (UniProt P0C5J4); experiment: In vivo antagonist activity at GPR52 in HdhQ140 knock-in mouse model assessed as reduction in mHTT aggregate levels in striatum at 0.5 mM, icv QD for 3 weeks by S380 antibody based immunostaining based analysis; type: functional
[16] = target: G-protein coupled receptor 52 (Mus musculus) (UniProt P0C5J4); experiment: Antagonist activity at GPR52 in neurons from HdhQ7/Q140 mouse assessed as decrease in wild type HTT levels at 0.3 to 3 uM incubated for 48 hrs in presence of 2B7-terbium and 2166-D2 antibodies by western blot analysis; type: tissue-based; conditions: Neuron, filed as antagonist, dose 0.3-3 µM
[17] = target: G-protein coupled receptor 52 (Homo sapiens, UniProt Q9Y2T5); experiment: Antagonist activity at GPR52 (unknown origin) expressed in HEK293 cells assessed as inhibition of WO459-induced cAMP accumulation preincubated for 15 mins followed by WO459 addition and measured after 30 mins by LANCE Ultra cAMP kit based microplate reader analysis; type: functional, cell-based; conditions: read-out: IC50
[18] = target: Glucagon-like peptide 1 receptor (Homo sapiens) (UniProt P43220); experiment: Antagonist activity at GLP-1R (unknown origin) expressed in HEK293 cells assessed as inhibition of GLP1-induced cAMP accumulation; type: functional, cell-based
Mus musculus [19] = experiment: Neuroprotective activity in HdhQ140 mouse model assessed as rescue of motor deficiency by measuring crossing time at 5 mg/kg, iv QD for 4 weeks by balance beam test; type: functional, organism-based
[20] = target: G-protein coupled receptor 52 (Mus musculus) (UniProt P0C5J4); experiment: In vivo antagonist activity at GPR52 in wild type mouse model assessed as reduction in wild type HTT levels at 0.5 mM, icv QD for 3 weeks by TR-FRET analysis; type: functional
[21] = target: G-protein coupled receptor 52 (Mus musculus) (UniProt P0C5J4); experiment: In vivo antagonist activity at GPR52 in HdhQ140 knock-in mouse model assessed as reduction in mHTT aggregate levels in cortex in presence of 4C9 antibody labelled with D2 fluorophore at 5 mg/kg, iv QD for 4 weeks by TR-FRET analysis; type: functional, organism-based
[22] = target: G-protein coupled receptor 52 (Mus musculus) (UniProt P0C5J4); experiment: In vivo antagonist activity at GPR52 in wild type mouse model assessed as reduction in mHTT aggregate levels in cortex in presence of 4C9 antibody labelled with terbium at 5 mg/kg, iv QD for 4 weeks by TR-FRET analysis; type: functional, organism-based
Mus musculus [23] = experiment: Neuroprotective activity in HdhQ140 knock-in mouse model assessed as decrease in staining intensity of microglia in striatum at 0.5 mM, icv QD for 3 weeks by Iba1staining based immunostaining analysis; type: functional, organism-based
[24] = target: G-protein coupled receptor 52 (Mus musculus) (UniProt P0C5J4); experiment: Antagonist activity at GPR52 in neurons from HdhQ7/Q140 mouse assessed as decrease in wild type HTT levels at 0.1 to 3 uM incubated for 48 hrs in presence of 2B7-terbium and 2166-D2 antibodies by TR-FRET analysis; type: tissue-based; conditions: Neuron, filed as antagonist, dose 0.1-3 µM
[25] = target: Beta-2 adrenergic receptor (Homo sapiens) (UniProt P07550); experiment: Antagonist activity at beta2 adrenergic receptor (unknown origin) expressed in HEK293 cells assessed as inhibition of isoproterenol-induced cAMP accumulation; type: functional, cell-based
[26] = target: G-protein coupled receptor 52 (Mus musculus) (UniProt P0C5J4); experiment: Antagonist activity at GPR52 in mouse STHdhQ7/111 cells assessed as decrease in mHTT levels at 1 to 10 uM incubated for 48 hrs in presence of 2B7-terbium and 2166-D2 antibodies by western blot analysis; type: cell-based; conditions: filed as antagonist, dose 1-10 µM
Neuron [27] = experiment: Neuroprotective activity in neurons from HdhQ7/Q140 mouse assessed as rescue from mHTT-induced neuronal loss by measuring reduction in caspase 3 activity at 3 uM incubated for 48 hrs maintained in absence of growth factor N2 and B27 under starvation condition by green fluorescent dye based assay; type: functional, tissue-based
[28] = target: G-protein coupled receptor 52 (Mus musculus) (UniProt P0C5J4); experiment: Antagonist activity at GPR52 in mouse STHdhQ7/111 cells assessed as decrease in wild type HTT levels at 1 to 10 uM incubated for 48 hrs in presence of 2B7-terbium and 2166-D2 antibodies by western blot analysis; type: cell-based; conditions: filed as antagonist, dose 1-10 µM
[29] = target: G-protein coupled receptor 52 (Mus musculus) (UniProt P0C5J4); experiment: In vivo antagonist activity at GPR52 in HdhQ140 knock-in mouse model assessed as reduction in soluble mHTT levels in cortex at 5 mg/kg, iv QD for 4 weeks by TR-FRET analysis; type: functional, organism-based
STHdhQ7/111 [30] = experiment: Decrease in wild type HTT level in GPR52 knockdown mouse STHdhQ7/111 cells with at 1 to 10 uM incubated for 48 hrs in presence of 2B7-terbium and 2166-D2 antibodies by TR-FRET analysis; type: functional, cell-based; conditions: dose 1-10 µM
[31] = target: G-protein coupled receptor 52 (Mus musculus) (UniProt P0C5J4); experiment: In vivo antagonist activity at GPR52 in HdhQ140 knock-in mouse model assessed as reduction in mHTT aggregate levels in cortex in presence of 4C9 antibody labelled with terbium at 5 mg/kg, iv QD for 4 weeks by TR-FRET analysis; type: functional, organism-based
Mus musculus [32] = experiment: Neuroprotective activity in HdhQ140 knock-in mouse model assessed as decrease in staining intensity of microglia in striatum at 5 mg/kg, iv QD for 4 weeks by Iba1 staining based immunostaining analysis; type: functional, organism-based
[33] = target: G-protein coupled receptor 52 (Mus musculus) (UniProt P0C5J4); experiment: In vivo antagonist activity at GPR52 in wild type mouse model assessed as reduction in mHTT aggregate levels in striatum in presence of 4C9 antibody labelled with D2 fluorophore at 5 mg/kg, iv QD for 4 weeks by TR-FRET analysis; type: functional, organism-based
[34] = target: G-protein coupled receptor 52 (Mus musculus) (UniProt P0C5J4); experiment: In vivo antagonist activity at GPR52 in HdhQ140 knock-in mouse model assessed as reduction in soluble mHTT levels in striatum at 5 mg/kg, iv QD for 4 weeks by TR-FRET analysis; type: functional, organism-based
[35] = target: G-protein coupled receptor 52 (Mus musculus) (UniProt P0C5J4); experiment: Antagonist activity at GPR52 in neurons from HdhQ7/Q140 mouse assessed as decrease in mHTT levels at 0.1 to 3 uM incubated for 48 hrs in presence of 2B7-terbium and 2166-D2 antibodies by TR-FRET analysis; type: tissue-based; conditions: Neuron, filed as antagonist, dose 0.1-3 µM
[36] = Drug uptake in wild type mouse brain at 5 mg/kg, iv measured 0.5 to 6 hrs; type: ADME, organism-based; conditions: in vivo, time 0.5-6 hrs, read-out: Drug uptake
Mus musculus [37] = experiment: Neuroprotective activity in HdhQ140 knock-in mouse model assessed as rescue of mHTT-induced neuronal survival loss at 5 mg/kg, iv QD for 4 weeks by […] based immunostaining based analysis; type: functional, organism-based
[38] = Cytotoxicity against mouse STHdhQ7/111 cells assessed as cell viability at < 10 uM incubated for 48 hrs by cell titer glo luminescence based assay; conditions: sthdhq7/111, 48 h
[39] = target: D(2) dopamine receptor (Homo sapiens) (UniProt P14416); experiment: Antagonist activity at dopamine D2 receptor (unknown origin) expressed in HEK293 cells assessed as inhibition of dopamine-induced cAMP accumulation; type: functional, cell-based
[40] = target: Glucagon receptor (Homo sapiens) (UniProt P47871); experiment: Antagonist activity at GCGR (unknown origin) expressed in HEK293 cells assessed as inhibition of glucagon-induced cAMP accumulation; type: functional, cell-based
[41] = target: G-protein coupled receptor 52 (Mus musculus) (UniProt P0C5J4); experiment: In vivo antagonist activity at GPR52 in HdhQ140 knock-in mouse model assessed as reduction in mHTT aggregate levels in striatum in presence of 4C9 antibody labelled with terbium at 5 mg/kg, iv QD for 4 weeks by TR-FRET analysis; type: functional, organism-based
[42] = Neurotoxicity in wild type mouse assessed as effect on motor deficiency by measuring crossing time at 5 mg/kg, iv QD for 4 weeks by balance beam test; type: toxicity, organism-based; conditions: in vivo, 672 h

Sequence of G-protein coupled receptor 52 (Mus musculus) (P0C5J4 whole entry): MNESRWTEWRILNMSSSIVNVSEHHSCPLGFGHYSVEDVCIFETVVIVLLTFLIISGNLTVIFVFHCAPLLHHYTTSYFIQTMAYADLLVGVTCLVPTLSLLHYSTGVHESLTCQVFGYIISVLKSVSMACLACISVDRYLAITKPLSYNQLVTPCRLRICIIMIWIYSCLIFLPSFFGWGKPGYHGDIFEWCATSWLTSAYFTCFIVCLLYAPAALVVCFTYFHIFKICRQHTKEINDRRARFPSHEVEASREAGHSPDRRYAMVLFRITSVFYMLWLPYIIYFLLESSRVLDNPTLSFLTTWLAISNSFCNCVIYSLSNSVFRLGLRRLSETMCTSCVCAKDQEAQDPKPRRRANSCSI
Sequence of G-protein coupled receptor 52 (Q9Y2T5 whole entry): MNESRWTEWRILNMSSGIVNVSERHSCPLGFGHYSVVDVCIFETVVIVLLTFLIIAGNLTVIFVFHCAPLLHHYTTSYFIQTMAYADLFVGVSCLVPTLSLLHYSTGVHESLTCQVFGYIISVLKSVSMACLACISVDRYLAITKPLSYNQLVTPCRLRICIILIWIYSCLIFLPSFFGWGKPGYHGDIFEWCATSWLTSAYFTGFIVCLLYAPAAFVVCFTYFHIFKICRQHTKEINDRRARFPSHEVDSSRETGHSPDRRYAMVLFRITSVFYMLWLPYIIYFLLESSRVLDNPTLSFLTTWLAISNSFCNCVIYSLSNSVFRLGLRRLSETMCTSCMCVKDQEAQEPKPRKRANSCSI
Sequence of Glucagon-like peptide 1 receptor (Homo sapiens) (P43220 whole entry): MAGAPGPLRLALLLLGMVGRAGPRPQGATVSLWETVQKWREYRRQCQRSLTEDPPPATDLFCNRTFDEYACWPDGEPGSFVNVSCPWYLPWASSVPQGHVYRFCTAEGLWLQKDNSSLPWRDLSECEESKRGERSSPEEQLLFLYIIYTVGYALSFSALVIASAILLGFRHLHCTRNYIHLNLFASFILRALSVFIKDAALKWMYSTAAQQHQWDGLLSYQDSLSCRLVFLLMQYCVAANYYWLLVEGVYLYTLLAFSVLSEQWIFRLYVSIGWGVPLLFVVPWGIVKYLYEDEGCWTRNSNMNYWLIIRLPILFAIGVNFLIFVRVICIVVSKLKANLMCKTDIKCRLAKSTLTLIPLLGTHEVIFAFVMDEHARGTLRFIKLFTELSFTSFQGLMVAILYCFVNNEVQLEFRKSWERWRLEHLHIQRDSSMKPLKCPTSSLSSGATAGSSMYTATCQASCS
Sequence of D(2) dopamine receptor (Homo sapiens) (P14416 whole entry): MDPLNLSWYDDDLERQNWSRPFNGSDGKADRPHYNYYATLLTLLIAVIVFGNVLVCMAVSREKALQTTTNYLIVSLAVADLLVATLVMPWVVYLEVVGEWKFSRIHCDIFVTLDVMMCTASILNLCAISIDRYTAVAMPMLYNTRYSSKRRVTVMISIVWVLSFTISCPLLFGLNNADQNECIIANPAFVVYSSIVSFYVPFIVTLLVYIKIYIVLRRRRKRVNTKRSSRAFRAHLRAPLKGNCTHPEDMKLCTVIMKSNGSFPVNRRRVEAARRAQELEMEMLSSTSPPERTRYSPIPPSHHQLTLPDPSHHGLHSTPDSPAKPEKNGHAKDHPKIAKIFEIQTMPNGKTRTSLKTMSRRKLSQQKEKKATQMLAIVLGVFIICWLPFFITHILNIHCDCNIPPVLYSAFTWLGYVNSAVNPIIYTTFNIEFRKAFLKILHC
Sequence of Glucagon receptor (Homo sapiens) (P47871 whole entry): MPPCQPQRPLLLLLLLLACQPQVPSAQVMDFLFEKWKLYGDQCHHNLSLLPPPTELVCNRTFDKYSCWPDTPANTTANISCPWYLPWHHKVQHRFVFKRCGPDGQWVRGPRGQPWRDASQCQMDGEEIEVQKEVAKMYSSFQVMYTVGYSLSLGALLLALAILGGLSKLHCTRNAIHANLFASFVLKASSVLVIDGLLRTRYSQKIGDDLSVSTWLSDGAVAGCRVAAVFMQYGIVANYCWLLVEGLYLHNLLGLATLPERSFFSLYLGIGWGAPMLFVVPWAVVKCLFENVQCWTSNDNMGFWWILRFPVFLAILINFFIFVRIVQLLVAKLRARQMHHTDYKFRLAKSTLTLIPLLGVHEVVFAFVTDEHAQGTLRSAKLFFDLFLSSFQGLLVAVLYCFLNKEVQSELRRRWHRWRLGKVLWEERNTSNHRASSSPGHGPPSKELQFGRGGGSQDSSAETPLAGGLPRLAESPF
Sequence of C-C chemokine receptor type 5 (Homo sapiens) (P51681 whole entry, looked up): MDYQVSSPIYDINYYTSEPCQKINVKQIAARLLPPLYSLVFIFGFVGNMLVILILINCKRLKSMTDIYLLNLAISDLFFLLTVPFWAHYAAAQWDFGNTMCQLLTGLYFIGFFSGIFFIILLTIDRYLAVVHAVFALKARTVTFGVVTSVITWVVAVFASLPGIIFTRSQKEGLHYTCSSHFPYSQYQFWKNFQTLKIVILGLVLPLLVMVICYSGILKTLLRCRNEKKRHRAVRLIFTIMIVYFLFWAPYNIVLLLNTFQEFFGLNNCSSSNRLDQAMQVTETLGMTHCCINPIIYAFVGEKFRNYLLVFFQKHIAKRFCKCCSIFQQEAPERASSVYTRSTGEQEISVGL
Sequence of Beta-2 adrenergic receptor (Homo sapiens) (P07550 whole entry, looked up): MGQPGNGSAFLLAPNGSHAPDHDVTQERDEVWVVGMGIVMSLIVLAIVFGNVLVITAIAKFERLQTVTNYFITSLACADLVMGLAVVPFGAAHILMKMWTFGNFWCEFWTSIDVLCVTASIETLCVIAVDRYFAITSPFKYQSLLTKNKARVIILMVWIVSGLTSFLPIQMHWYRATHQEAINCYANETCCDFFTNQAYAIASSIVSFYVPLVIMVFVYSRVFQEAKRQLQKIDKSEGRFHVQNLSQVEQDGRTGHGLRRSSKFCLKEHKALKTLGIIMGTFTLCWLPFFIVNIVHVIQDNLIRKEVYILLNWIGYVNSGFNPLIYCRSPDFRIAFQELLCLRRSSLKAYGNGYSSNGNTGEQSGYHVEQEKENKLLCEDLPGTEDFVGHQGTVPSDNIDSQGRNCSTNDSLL

Activity [1]: Active
Activity [2]: inactive
Activity [3]: inactive
Activity [4]: Active
Activity [6]: inactive
Activity [7]: Active
Activity [11]: Dose-dependent effect
Activity [12]: inactive
Activity [13]: inactive
Activity [14]: inactive
Activity [15]: Active
Activity [16]: Active
IC50 [17]: 630 nM
Activity [18]: inactive
Activity [20]: inactive
Activity [21]: inactive
Activity [22]: inactive
Activity [24]: Active
Activity [25]: inactive
Activity [26]: Active
Activity (Neuron [27]): Active
Activity [28]: Active
Activity [29]: inactive
Activity [31]: inactive
Activity [33]: inactive
Activity [34]: Active
Activity [35]: Active
concentration [36]: 20 nM
Activity [39]: inactive
Activity [40]: inactive
Activity [41]: Active
SMILES: O=C(/C=C/CCc1ccccc1)c1ccco1
Activity (STHdhQ7/111 [5]): inactive
Activity [8]: Non-Toxic
Activity (Neuron [9]): Active
Activity (Mus musculus [10]): Active
Activity (Mus musculus [19]): Active
Activity (Mus musculus [23]): Active
Activity (STHdhQ7/111 [30]): inactive
Activity (Mus musculus [32]): Active
Activity (Mus musculus [37]): Active
Activity [38]: Non-Toxic
Activity [42]: Non-Toxic
